This note sets out measurements from patent publication US20250017907A1, “METHOD FOR PREVENTING AND/OR TREATING LIVER FIBROSIS BY USING 6-METHOXYBENZOXAZOLINONE AND COIX LACHRYMA-JOBI L. EXTRACT COMPRISING 6-METHOXYBENZOXAZOLINONE” (Taichung District Agricultural Research and Extension …, priority 2023, published 2025).

In data set [1] the test system is TAA-induced liver fibrotic C57BL/6J mice. The data set can be described thus: Liver histopathological observation (H&E, Sirius Red, IHC staining). It is filed as in vivo. The following applies: 6 weeks; for collagen deposition (Sirius Red) / inflammatory infiltration (H&E) / liver structure deformation (H&E) / α-SMA expression (IHC): vs TAA group. The protocol: According to the present invention, animals used in the following examples are described as follows. Male C57BL/6J mice (5-week-old) were from the National Laboratory Animal Center (Taipei, Taiwan), and housed in a temperature-controlled room on a 12 h light-dark cycle with free access to food and drinking water at the Animal Center of the National Yang Ming Chiao Tung University (Taipei, Taiwan). All experiments were approved by Institutional Animal Care and Use Committee of National Yang Ming Chiao Tung University. […]
For tests of CX, mice were randomly divided into the following four groups (n=8, per group): (1) NT group, (2) TAA group (200 mg/kg), (3) CX group (CX20, 20 mg/kg), and (4) CX group (CX50, 50 mg/kg). NT group received pure saline, and other groups intraperitoneally injected with TAA dissolved into saline thrice a week. Moreover, NT group and TAA group also received 5% propylene glycol, while CX groups received CX dissolved into 5% propylene glycol (prepared in 0.9% saline) by oral gavage once per day. […]
The procedure of liver histopathological observation is as follows. After fixation in 10% neutral buffered formalin solution, the liver tissues were embedded with paraffin and then sliced into 4 μm-thickness sections. Pathological sections were examined to assess the change of tissue architecture with the H&E staining kit (CIS-Biotechnology, Taiwan), the condition of collagen deposition with the Sirius Red staining kit (CIS-Biotechnology, Taiwan), and the expression of specific proteins in tissue with the immunohistochemistry kit (Agilent, USA), as well as phospho-SMAD2 (1:100; GeneTex, USA), phospho-SMAD3 (1:100; GeneTex, USA), and α-SMA (1:100; GeneTex, USA) antibodies.
(§1) To examine the effects of CX on liver fibrosis, this example established a TAA-induced liver fibrotic C57BL/6J mouse model. FIG. 6 is a schematic diagram of animal experiment design in 6-methoxybenzoxazolinone (6-MBOA) (CX) groups. For animal experiments, 6-week-old C57BL/6J mice were randomly divided into four groups including NT, TAA, CX20 (TAA+20 mg/kg CX), CX50 (TAA+50 mg/kg CX). (n=8 per group). Mice were given intraperitoneal injection of TAA thrice a week to induce liver fibrosis; they also received CX or the vehicle by oral gavage once per day. At the end of animal tests, mice were sacrificed at 12 weeks of age. Six-week-old mice were randomly divided into four groups, namely NT, TAA, CX20 and CX50 (FIG. 6). Among these groups, only the NT group was oral gavaged and administered with vehicle, the TAA group was oral gavaged with vehicle and administered with TAA, and the CX groups were oral gavaged with CX and administered with TAA. Oral gavage was performed once a day while intraperitoneal injection was given thrice a week; both oral gavage and intraperitoneal injection were continuously administered for six weeks. After that, the mice were sacrificed, and their liver tissues and serum were collected for subsequent analyses.

Data set [2] shares this test system. The data set can be described thus: Oxidative stress indicator tests in liver (SOD, CAT, GSH, MDA). Type of data set: in vivo. The following applies: 6 weeks, vs TAA group. The protocol: For tests of CX, mice were randomly divided into the following four groups (n=8, per group): (1) NT group, (2) TAA group (200 mg/kg), (3) CX group (CX20, 20 mg/kg), and (4) CX group (CX50, 50 mg/kg). NT group received pure saline, and other groups intraperitoneally injected with TAA dissolved into saline thrice a week. Moreover, NT group and TAA group also received 5% propylene glycol, while CX groups received CX dissolved into 5% propylene glycol (prepared in 0.9% saline) by oral gavage once per day.
as §1
The procedure of oxidative stress indicator tests is as follows. The enzyme activity of catalase (CAT) and superoxide dismutase (SOD), the content of malondialdehyde (MDA), and the concentration of glutathione (GSH) in tissue were tested to examine changes in oxidative stress levels in TAA-induced liver fibrotic mice. […] All of the kits were commercial products, the working protocol followed the manufacturer's instructions. Briefly, the liver tissue was homogenized in ice-cold buffer and centrifuged at 4° C., then collected supernatant for analysis, finally, read the absorbance of samples with ELISA reader (TECAN, Switzerland).

The next data set relates to HSC-T6 cells. Put plainly: MTT cell viability assay. It is filed as cell-based, rat. The following applies: 0-800 μM, 24 h. Here is the method:
The procedure of cell cultures is as follows. HSC-T6 cell is an immortalized cell line isolated from transformed SV40 large T-antigen transformed primary stellate cells of male Sprague-Dawley rats. HSC-T6 cells were maintained in Dulbecco's Modified Eagle Medium (DMEM, Sigma-Aldrich, USA) containing 8% fetal bovine serum (FBS, HyClone, USA), 100 U/mL of penicillin, and 100 μg/mL of streptomycin (Gibco, USA).
The procedure of cell viability assay is as follows. HSC-T6 cells were seed at 1.5×10^4 in 96-well plates and were incubated with CX (0-800 μM) or adlay extracts (0-800 μg/mL) for 24 h. Followed by the determination of cell viability with MTT [3-(4,5-Dimethyl-2-thiazolyl)-2,5-diphenyl-2H-tetrazolium bromide] (Sigma-Aldrich, USA). Briefly, MTT was added to each well at a final concentration of […] and was incubated at 37° C. for 1 h. Next, removed the MTT and added the DMSO to dissolve MTT-formazan crystals formed by metabolically viable cells. Finally, the absorbance of each well was detected by a spectrophotometer at the wavelength of 570 nm.
In general terms: Tetrazolium dyes change colour on reduction, which living cells bring about.

For data set [3], the system named is TGF-β1-activated HSC-T6 cells. The data set can be described thus: Wound healing assay. It is filed as cell-based, rat. Here is the method: The procedure of wound healing assay is as follows. HSC-T6 cells were seeded on the 6-well plates for 24 h, scraped monolayer cells with a 200 μL pipette tip and washed off non-adherent cells by PBS, changed serum-free medium for 24 h, then treated with TGF-β1 and CX for 0, 24, and 48 h.

[4] abbreviates: CX20: 20 mg/kg oral gavage once per day.
Where [5] appears, read: CX50: 50 mg/kg oral gavage once per day.

Take `COc1ccc2[nH]c(=O)oc2c1` [CX, 6-methoxybenzoxazolinone]: in data set [1] (setting [4]), the “collagen deposition (Sirius Red)” value was “significantly reduced”, the “inflammatory infiltration (H&E)” value is recorded as “significantly reduced”, the “liver structure deformation (H&E)” value is given as “significantly reduced” and the “α-SMA expression (IHC)” value is listed as “significantly reduced”. In addition, in data set [1] (setting [5]), the “p-SMAD2 expression (IHC)” value is given as “negatively regulated”, the “p-SMAD3 expression (IHC)” value is recorded as “negatively regulated”, the “collagen deposition (Sirius Red)” value is recorded as “significantly reduced” and the “inflammatory infiltration (H&E)” value is “significantly reduced”. Also, in data set [1] (setting [5]), the “liver structure deformation (H&E)” value is “significantly reduced” and the “α-SMA expression (IHC)” value is listed as “significantly reduced”. Also, in data set [2] (CX20: 20 mg/kg oral), the “liver CAT activity” value was “increased”, the “liver GSH content” value is given as “increased” and the “liver MDA content” value is listed as “decreased”. In data set [2] (CX50: 50 mg/kg oral), the “liver CAT activity” value is given as “increased”, the “liver GSH content” value is “increased”, the “liver MDA content” value is recorded as “decreased” and the “liver SOD activity” value is on record as “significantly increased”. Besides, the “dose with no significant effects on cell viability” value with HSC-T6 cells is recorded as “below 400 μM”. For the same compound, the “TGF-β1-induced wound closure of 24 h” value in data set [3] (HSC-T6, CX at a dose of 100 μM) is “significantly reduced”. Further, the “TGF-β1-induced wound closure of 48 h” value in data set [3] (HSC-T6, CX at a dose of 20-100 μM) was “reduced”.
